Source: ChEMBL document CHEMBL4665624, “Synthesis of 5-(4-(1H-phenanthro[9,10-d]imidazol-2-yl)benzylidene)thiazolidine-2,4-dione as promising DNA and serum albumin-binding agents and evaluation of antitumor activity” (Eur J Med Chem, 2019)

Tests used:
CCRF-CEM = experiment: Antitumor activity against human CCRF-CEM cells assessed as cell growth inhibition at 10 uM incubated for 48 hrs by sulforhodamine B assay; format: functional; conditions: read-out: GI
HL-60(TB) = experiment: Antitumor activity against human HL-60(TB) cells assessed as cell growth inhibition at 10 uM incubated for 48 hrs by sulforhodamine B assay; format: functional; conditions: read-out: GI
K562 = experiment: Antitumor activity against human K562 cells assessed as cell growth inhibition at 10 uM incubated for 48 hrs by sulforhodamine B assay; format: functional; conditions: read-out: GI
MOLT-4 = experiment: Antitumor activity against human MOLT4 cells assessed as cell growth inhibition at 10 uM incubated for 48 hrs by sulforhodamine B assay; format: functional; conditions: read-out: GI
RPMI-8226 = experiment: Antitumor activity against human RPMI8226 cells assessed as cell growth inhibition at 10 uM incubated for 48 hrs by sulforhodamine B assay; format: functional; conditions: read-out: GI
SR = experiment: Antitumor activity against human SR cells assessed as cell growth inhibition at 10 uM incubated for 48 hrs by sulforhodamine B assay; format: functional; conditions: read-out: GI
EKVX = experiment: Antitumor activity against human EKVX cells assessed as cell growth inhibition at 10 uM incubated for 48 hrs by sulforhodamine B assay; format: functional; conditions: read-out: GI
HOP-92 = experiment: Antitumor activity against human HOP92 cells assessed as cell growth inhibition at 10 uM incubated for 48 hrs by sulforhodamine B assay; format: functional; conditions: read-out: GI
NCI-H226 = experiment: Antitumor activity against human NCI-H226 assessed as cell growth inhibition at 10 uM incubated for 48 hrs by sulforhodamine B assay; format: functional; conditions: read-out: GI
NCI-H23 = experiment: Antitumor activity against human NCI-H23 cells assessed as cell growth inhibition at 10 uM incubated for 48 hrs by sulforhodamine B assay; format: functional; conditions: read-out: GI
NCI-H460 = experiment: Antitumor activity against human NCI-H460 assessed as cell growth inhibition at 10 uM incubated for 48 hrs by sulforhodamine B assay; format: functional; conditions: read-out: GI
NCI-H522 = experiment: Antitumor activity against human NCI-H522 cells assessed as cell growth inhibition at 10 uM incubated for 48 hrs by sulforhodamine B assay; format: functional; conditions: read-out: GI
COLO 205 = experiment: Antitumor activity against human COLO205 cells assessed as cell growth inhibition at 10 uM incubated for 48 hrs by sulforhodamine B assay; format: functional; conditions: read-out: GI
HCC 2998 = experiment: Antitumor activity against human HCC2998 cells assessed as cell growth inhibition at 10 uM incubated for 48 hrs by sulforhodamine B assay; format: functional; conditions: read-out: GI
HCT-116 = experiment: Antitumor activity against human HCT116 cells assessed as cell growth inhibition at 10 uM incubated for 48 hrs by sulforhodamine B assay; format: functional; conditions: read-out: GI
HCT-15 = experiment: Antitumor activity against human HCT15 cells assessed as cell growth inhibition at 10 uM incubated for 48 hrs by sulforhodamine B assay; format: functional; conditions: read-out: GI
HT-29 = experiment: Antitumor activity against human HT-29 cells assessed as cell growth inhibition at 10 uM incubated for 48 hrs by sulforhodamine B assay; format: functional; conditions: read-out: GI
KM12 = experiment: Antitumor activity against human KM12 cells assessed as cell growth inhibition at 10 uM incubated for 48 hrs by sulforhodamine B assay; format: functional; conditions: read-out: GI
SF-268 = experiment: Antitumor activity against human SF268 cells assessed as cell growth inhibition at 10 uM incubated for 48 hrs by sulforhodamine B assay; format: functional; conditions: read-out: GI
SF-295 = experiment: Antitumor activity against human SF295 cells assessed as cell growth inhibition at 10 uM incubated for 48 hrs by sulforhodamine B assay; format: functional; conditions: read-out: GI
SNB-19 = experiment: Antitumor activity against human SNB-19 cells assessed as cell growth inhibition at 10 uM incubated for 48 hrs by sulforhodamine B assay; format: functional; conditions: read-out: GI
SNB-75 = experiment: Antitumor activity against human SNB-75 cells assessed as cell growth inhibition at 10 uM incubated for 48 hrs by sulforhodamine B assay; format: functional; conditions: read-out: GI
U-251 = experiment: Antitumor activity against human U251 cells assessed as cell growth inhibition at 10 uM incubated for 48 hrs by sulforhodamine B assay; format: functional; conditions: read-out: GI
LOX IMVI = experiment: Antitumor activity against human LOX IMVI cells assessed as cell growth inhibition at 10 uM incubated for 48 hrs by sulforhodamine B assay; format: functional; conditions: read-out: GI
Malme-3M = experiment: Antitumor activity against human MALME-3M cells assessed as cell growth inhibition at 10 uM incubated for 48 hrs by sulforhodamine B assay; format: functional; conditions: read-out: GI
M14 = experiment: Antitumor activity against human M14 cells assessed as cell growth inhibition at 10 uM incubated for 48 hrs by sulforhodamine B assay; format: functional; conditions: read-out: GI
MDA-MB-435 = experiment: Antitumor activity against human MDA-MB-435 cells assessed as cell growth inhibition at 10 uM incubated for 48 hrs by sulforhodamine B assay; format: functional; conditions: read-out: GI
SK-MEL-28 = experiment: Antitumor activity against human SK-MEL-28 cells assessed as cell growth inhibition at 10 uM incubated for 48 hrs by sulforhodamine B assay; format: functional; conditions: read-out: GI
UACC-62 = experiment: Antitumor activity against human UACC-62 cells assessed as cell growth inhibition at 10 uM incubated for 48 hrs by sulforhodamine B assay; format: functional; conditions: read-out: GI
IGROV-1 = experiment: Antitumor activity against human IGROV1 cells assessed as cell growth inhibition at 10 uM incubated for 48 hrs by sulforhodamine B assay; format: functional; conditions: read-out: GI
OVCAR-3 = experiment: Antitumor activity against human OVCAR-3 cells assessed as cell growth inhibition at 10 uM incubated for 48 hrs by sulforhodamine B assay; format: functional; conditions: read-out: GI
OVCAR-4 = experiment: Antitumor activity against human OVCAR-4 cells assessed as cell growth inhibition at 10 uM incubated for 48 hrs by sulforhodamine B assay; format: functional; conditions: read-out: GI
OVCAR-8 = experiment: Antitumor activity against human OVCAR-8 cells assessed as cell growth inhibition at 10 uM incubated for 48 hrs by sulforhodamine B assay; format: functional; conditions: read-out: GI
NCI/ADR-RES = experiment: Antitumor activity against human NCI/ADR-RES cells assessed as cell growth inhibition at 10 uM incubated for 48 hrs by sulforhodamine B assay; format: functional; conditions: read-out: GI
SK-OV-3 = experiment: Antitumor activity against human SK-OV-3 cells assessed as cell growth inhibition at 10 uM incubated for 48 hrs by sulforhodamine B assay; format: functional; conditions: read-out: GI
786-0 = experiment: Antitumor activity against human 786-0 cells assessed as cell growth inhibition at 10 uM incubated for 48 hrs by sulforhodamine B assay; format: functional; conditions: read-out: GI
A498 = experiment: Antitumor activity against human A498 cells assessed as cell growth inhibition at 10 uM incubated for 48 hrs by sulforhodamine B assay; format: functional; conditions: read-out: GI
ACHN = experiment: Antitumor activity against human ACHN cells assessed as cell growth inhibition at 10 uM incubated for 48 hrs by sulforhodamine B assay; format: functional; conditions: read-out: GI
RXF 393 = experiment: Antitumor activity against human RXF 393 cells assessed as cell growth inhibition at 10 uM incubated for 48 hrs by sulforhodamine B assay; format: functional; conditions: read-out: GI
SN12C = experiment: Antitumor activity against human SN12C cells assessed as cell growth inhibition at 10 uM incubated for 48 hrs by sulforhodamine B assay; format: functional; conditions: read-out: GI
UO-31 = experiment: Antitumor activity against human UO-31 cells assessed as cell growth inhibition at 10 uM incubated for 48 hrs by sulforhodamine B assay; format: functional; conditions: read-out: GI
PC-3 = experiment: Antitumor activity against human PC-3 cells assessed as cell growth inhibition at 10 uM incubated for 48 hrs by sulforhodamine B assay; format: functional; conditions: read-out: GI
MCF7 = experiment: Antitumor activity against human MCF7 cells assessed as cell growth inhibition at 10 uM incubated for 48 hrs by sulforhodamine B assay; format: functional; conditions: read-out: GI
MDA-MB-231 = experiment: Antitumor activity against human MDA-MB-231/ATCC cells assessed as cell growth inhibition at 10 uM incubated for 48 hrs by sulforhodamine B assay; format: functional; conditions: read-out: GI
Hs-578T = experiment: Antitumor activity against human HS 578T cells assessed as cell growth inhibition at 10 uM incubated for 48 hrs by sulforhodamine B assay; format: functional; conditions: read-out: GI
BT-549 = experiment: Antitumor activity against human BT-549 cells assessed as cell growth inhibition at 10 uM incubated for 48 hrs by sulforhodamine B assay; format: functional; conditions: read-out: GI
MDA-MB-468 = experiment: Antitumor activity against human MDA-MB-468 cells assessed as cell growth inhibition at 10 uM incubated for 48 hrs by sulforhodamine B assay; format: functional; conditions: read-out: GI
SW-620 = experiment: Antitumor activity against human SW620 cells assessed as cell growth inhibition at 10 uM incubated for 48 hrs by sulforhodamine B assay; conditions: SW-620, 48 h, read-out: GI

For `O=Cc1ccc(-c2nc3c([nH]2)-c2cccc4cccc-3c24)cc1`, the inhibition of growth at 10 µM (CCRF-CEM) was 11.1%, the inhibition of growth at 10 µM (HL-60(TB)) was under 10% and the inhibition of growth at 10 µM (K562) was 16.5%. The inhibition of growth at 10 µM (MOLT-4) was 20.5%, the inhibition of growth at 10 µM (RPMI-8226) was 22.8% and the inhibition of growth at 10 µM (SR) was 16%. It also gave an inhibition of growth at 10 µM (EKVX) of 23%, an inhibition of growth at 10 µM (HOP-92) of 14% and an inhibition of growth at 10 µM (NCI-H226) of 12.4%. The inhibition of growth at 10 µM (NCI-H23) was 14.9%, the inhibition of growth at 10 µM (NCI-H460) was 23.6% and the inhibition of growth at 10 µM (NCI-H522) was under 10%. It also gave an inhibition of growth at 10 µM (COLO 205) of under 10%, an inhibition of growth at 10 µM (HCC 2998) of 12.8% and an inhibition of growth at 10 µM (HCT-116) of 19.2%. The inhibition of growth at 10 µM (HCT-15) was 23.7%, the inhibition of growth at 10 µM (HT-29) was under 10% and the inhibition of growth at 10 µM (KM12) was 13%. It also gave an inhibition of growth at 10 µM (SF-268) of 13.3%, an inhibition of growth at 10 µM (SF-295) of under 10% and an inhibition of growth at 10 µM (SNB-19) of under 10%. The inhibition of growth at 10 µM (SNB-75) was under 10%, the inhibition of growth at 10 µM (U-251) was under 10% and the inhibition of growth at 10 µM (LOX IMVI) was 25.8%. It also gave an inhibition of growth at 10 µM (Malme-3M) of under 10%, an inhibition of growth at 10 µM (M14) of under 10% and an inhibition of growth at 10 µM (MDA-MB-435) of under 10%. For the same compound, the inhibition of growth at 10 µM (SK-MEL-28) was under 10%, the inhibition of growth at 10 µM (UACC-62) was 19.8% and the inhibition of growth at 10 µM (IGROV-1) was 28.9%. For the same compound, the inhibition of growth at 10 µM (OVCAR-3) was 12.3%, the inhibition of growth at 10 µM (OVCAR-4) was 27.4% and the inhibition of growth at 10 µM (OVCAR-8) was under 10%. For the same compound, the inhibition of growth at 10 µM (NCI/ADR-RES) was under 10%, the inhibition of growth at 10 µM (SK-OV-3) was under 10% and the inhibition of growth at 10 µM (786-0) was under 10%. The inhibition of growth at 10 µM (A498) was under 10%, the inhibition of growth at 10 µM (ACHN) was under 10% and the inhibition of growth at 10 µM (RXF 393) was under 10%. For the same compound, the inhibition of growth at 10 µM (SN12C) was under 10%, the inhibition of growth at 10 µM (UO-31) was 33.4% and the inhibition of growth at 10 µM (PC-3) was 21.1%. For the same compound, the inhibition of growth at 10 µM (MCF7) was 51.6%, the inhibition of growth at 10 µM (MDA-MB-231) was 25.6% and the inhibition of growth at 10 µM (Hs-578T) was under 10%. The inhibition of growth at 10 µM (BT-549) was under 10%, the inhibition of growth at 10 µM (MDA-MB-468) was 30.9% and the inhibition of growth at 10 µM (SW-620) was under 10%.
